Assay results published in PubChem BioAssay AID248 (DTP/NCI, 2004).
Several values for one entry are separate records, joined by “and”; a condition that tells them apart may be missing. Equal entries are not always repeated. Inconclusive results and toxic doses are left out. Rule as the data show it: active = T/C of 150% or more; inactive = T/C below 125%. Square brackets hold non-standard residues; d marks the D form. Peptide text beside a SMILES is read from it. βAla = NCCC(=O)O

System: L1210 leukemia ip in BDF1 mice, survival T/C
Assay: NCI In Vivo Anticancer Drug Screen. Data for tumor model L1210 Leukemia (intraperitoneal) in B6D2F1 (BDF1) mice
Settings: endpoint: mean survival time, higher = longer survival
In short: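 Antitumor effect is assessed in tumor-bearing animals. Survival in the compound arm is compared with a vehicle-dosed control arm and expressed as their quotient.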

[1] = dose: 50.0 mg/kg/injection, schedule: Q01DX001 (ip), vehicle: saline
[2] = dose: 100.0 mg/kg/injection, schedule: Q01DX001 (ip), vehicle: saline
[3] = dose: 200.0 mg/kg/injection, schedule: Q01DX001 (ip), vehicle: saline
[4] = dose: 400.0 mg/kg/injection, schedule: Q01DX001 (ip), vehicle: saline
[5] = dose: 100.0 mg/kg/injection, schedule: Q01DX009 (ip), vehicle: saline with Tween-80
[6] = dose: 200.0 mg/kg/injection, schedule: Q01DX009 (ip), vehicle: saline with Tween-80
[7] = dose: 100.0 mg/kg/injection, schedule: Q04DX003 (ip), vehicle: Klucel (hydroxypropylcellulose) (HPC)
[8] = dose: 200.0 mg/kg/injection, schedule: Q04DX003 (ip), vehicle: Klucel (hydroxypropylcellulose) (HPC)
[9] = dose: 400.0 mg/kg/injection, schedule: Q04DX003 (ip), vehicle: Klucel (hydroxypropylcellulose) (HPC)
[10] = dose: 50.0 mg/kg/injection, schedule: Q01DX001 (ip), vehicle: carboxymethylcellulose (CMC)
[11] = dose: 100.0 mg/kg/injection, schedule: Q01DX001 (ip), vehicle: carboxymethylcellulose (CMC)
[12] = dose: 200.0 mg/kg/injection, schedule: Q01DX001 (ip), vehicle: carboxymethylcellulose (CMC)
[13] = dose: 100.0 mg/kg/injection, schedule: Q04DX003 (ip), vehicle: saline with Tween-80
[14] = dose: 200.0 mg/kg/injection, schedule: Q04DX003 (ip), vehicle: saline with Tween-80
[15] = dose: 400.0 mg/kg/injection, schedule: Q04DX003 (ip), vehicle: saline with Tween-80

Measured: T/C

CC(C)CC(CO)Cc1nc2ccccc2[nH]1 (configuration not stated)
inactive: dose: 50.0 mg/kg/injection, schedule: Q04DX002 (ip), vehicle: Klucel (hydroxypropylcellulose) (HPC) 95 % of control | dose: 100.0 mg/kg/injection, schedule: Q04DX002 (ip), vehicle: Klucel (hydroxypropylcellulose) (HPC) 95 % of control | dose: 100.0 mg/kg/injection, schedule: Q04DX002 (ip), vehicle: other 105 % of control | dose: 100.0 mg/kg/injection, schedule: Q04DX003 (ip), vehicle: other 97 % of control | dose: 200.0 mg/kg/injection, schedule: Q04DX002 (ip), vehicle: Klucel (hydroxypropylcellulose) (HPC) 93 % of control and 92 % of control | dose: 200.0 mg/kg/injection, schedule: Q04DX002 (ip), vehicle: other 91 % of control and 92 % of control | dose: 200.0 mg/kg/injection, schedule: Q04DX003 (ip), vehicle: other 94 % of control | dose: 400.0 mg/kg/injection, schedule: Q04DX002 (ip), vehicle: Klucel (hydroxypropylcellulose) (HPC) 105 % of control | dose: 400.0 mg/kg/injection, schedule: Q04DX002 (ip), vehicle: other 102 % of control

NC(=S)N/N=C\c1cc2ccccc2c2ccccc12
inactive: [1] 95 % of control | [2] 95 % of control | [3] 95 % of control | [4] 98 % of control

COc1[nH]c(=O)ncc1Br
inactive: [1] 105 % of control | [2] 103 % of control | [3] 109 % of control | [4] 103 % of control

CCOC(=O)c1ccc(N)c(C(O)(C(F)(F)F)C(F)(F)F)c1
inactive: [5] 106 % of control | [6] 95 % of control | dose: 400.0 mg/kg/injection, schedule: Q01DX009 (ip), vehicle: saline with Tween-80 104 % of control

CCCCCCCCCCCCCCCC1=NN(c2ccccc2)C(=O)C1N=Nc1ccccc1 (configuration not stated)
inactive: [7] 102 % of control | [8] 98 % of control | [9] 94 % of control

COc1ccc(N=Cc2ccc(Cl)cc2)cc1C(F)(F)F
inactive: [7] 98 % of control | [8] 89 % of control | [9] 104 % of control

O=C1NCCCC1O (configuration not stated)
inactive: [10] 94 % of control | [11] 89 % of control | [12] 105 % of control | dose: 400.0 mg/kg/injection, schedule: Q01DX001 (ip), vehicle: carboxymethylcellulose (CMC) 103 % of control

O=c1c2ccccc2n2nnc3cccc1c32
inactive: dose: 100.0 mg/kg/injection, schedule: Q01DX001 (ip), vehicle: Klucel (hydroxypropylcellulose) (HPC) 97 % of control and 88 % of control | [7] 91 % of control | dose: 200.0 mg/kg/injection, schedule: Q01DX001 (ip), vehicle: Klucel (hydroxypropylcellulose) (HPC) 87 % of control | [8] 95 % of control | dose: 400.0 mg/kg/injection, schedule: Q01DX001 (ip), vehicle: Klucel (hydroxypropylcellulose) (HPC) 92 % of control

CC(=O)OC1CCC2(C)C(C1)CC(OC(C)=O)C1C2CCC2(C)C(C(C)CCC(=O)O)CCC12 (configuration not stated)
inactive: dose: 100.0 mg/kg/injection, schedule: Q01DX001 (ip), vehicle: saline with Tween-80 92 % of control | dose: 200.0 mg/kg/injection, schedule: Q01DX001 (ip), vehicle: saline with Tween-80 97 % of control | dose: 400.0 mg/kg/injection, schedule: Q01DX001 (ip), vehicle: saline with Tween-80 92 % of control

CCC(c1ccc2cc(OC)ccc2c1)C(C)(C)C(=O)O (configuration not stated)
inactive: dose: 100.0 mg/kg/injection, schedule: Q01DX001 (sc), vehicle: steriod suspending solution 112 % of control | dose: 200.0 mg/kg/injection, schedule: Q01DX001 (sc), vehicle: steriod suspending solution 95 % of control | dose: 400.0 mg/kg/injection, schedule: Q01DX001 (sc), vehicle: steriod suspending solution 101 % of control

O=C(O)CCCc1cccc2ccccc12
inactive: dose: 37.0 mg/kg/injection, schedule: Q01DX009 (ip), vehicle: gum acacia 97 % of control | dose: 75.0 mg/kg/injection, schedule: Q01DX009 (ip), vehicle: gum acacia 103 % of control | dose: 100.0 mg/kg/injection, schedule: Q04DX003 (ip), vehicle: gum acacia 97 % of control | dose: 150.0 mg/kg/injection, schedule: Q01DX009 (ip), vehicle: gum acacia 92 % of control | dose: 200.0 mg/kg/injection, schedule: Q04DX003 (ip), vehicle: gum acacia 86 % of control

CCCCCCCCCCCCC(C)(OO)C(=O)OC (configuration not stated)
inactive: dose: 15.0 mg/kg/injection, schedule: Q04DX002 (ip), vehicle: saline with Tween-80 100 % of control | dose: 30.0 mg/kg/injection, schedule: Q04DX002 (ip), vehicle: saline with Tween-80 91 % of control | dose: 160.0 mg/kg/injection, schedule: Q04DX002 (ip), vehicle: saline with Tween-80 95 % of control

CCOC(=O)/C=C1/Nc2cc(C)c(C)cc2NC1=O
inactive: [13] 91 % of control | [14] 89 % of control | [15] 94 % of control

CCNC(C)(C)C(O)c1ccc(Cl)s1 (configuration not stated)
inactive: [5] 98 % of control | [13] 100 % of control | [6] 98 % of control | [14] 102 % of control | [15] 103 % of control

C/C=C/C1OCC(CC)([N+](=O)[O-])CO1 (configuration not stated)
inactive: [13] 101 % of control | [14] 96 % of control | [15] 98 % of control

c1ccc(C(c2ccccc2)n2ccnc2)cc1
inactive: dose: 37.5 mg/kg/injection, schedule: Q04DX003 (ip), vehicle: saline 94 % of control | dose: 75.0 mg/kg/injection, schedule: Q04DX003 (ip), vehicle: saline 102 % of control | dose: 150.0 mg/kg/injection, schedule: Q04DX003 (ip), vehicle: saline 105 % of control

O=C(NCCCCC(NC(=O)OCc1ccccc1)C(=O)NCCCNCCCCNCCCNC(=O)C(CCCCNC(=O)OCc1ccccc1)NC(=O)OCc1ccccc1)OCc1ccccc1 (configuration not stated)
inactive: dose: 2.5 mg/kg/injection, schedule: Q01DX Z (ip), vehicle: saline 93 % of control | dose: 5.0 mg/kg/injection, schedule: Q01DX Z (ip), vehicle: saline 96 % of control | dose: 10.0 mg/kg/injection, schedule: Q01DX Z (ip), vehicle: saline 98 % of control | dose: 20.0 mg/kg/injection, schedule: Q01DX Z (ip), vehicle: saline 96 % of control

CC(NC(=O)C(CCC(=O)O)NC(=O)C(N)Cc1ccc(O)cc1)C(=O)NCCC(=O)NC(Cc1ccc(O)cc1)C(=O)NC(CCC(=O)O)C(=O)NC(C)C(=O)NCCC(=O)NCC(=O)O (configuration not stated) (H-YEA[βAla]YEA[βAla]G-OH; configuration not given here)
inactive: [10] 93 % of control | [11] 96 % of control | [12] 98 % of control

C1=CC=CN(c2ccccc2)C=C1
inactive: dose: 100.0 mg/kg/injection, schedule: Q01DX009 (ip), vehicle: Klucel (hydroxypropylcellulose) (HPC) 108 % of control | dose: 200.0 mg/kg/injection, schedule: Q01DX009 (ip), vehicle: Klucel (hydroxypropylcellulose) (HPC) 104 % of control
